# Reference: patent US12257265B2, “Cyclic dinucleotide prodrug molecule, preparation method therefor and application thereof” (SHENZHEN YING BIOPHARMACEUTICAL CO., LTD., priority 2019, dated 2025)
# Like-named read-outs stand apart in the source and are kept apart here.
# Assays:
# CT-26-Luc cells = test: Anticancer activity assay in CT-26 mouse tumor model; type: in vivo, mice; settings: 1 mg/kg intratumoral injection, once every two days, three times, FIG. 4 and FIG. 5
# Description: Anticancer Activity Assay of the Compound 8
# Mice: BABL/C female mice, weight 18 g to 22 g. The source is the animal experiment center in Guangdong province, and the mice are fed with pellet feed and freely eat and drink water.
# Tumor Cell Lines: CT-26-Luc Cells […]
# The administration method includes the following steps: the administration was started at the 10th day after tumor inoculation growth, and 50 microliters/mouse was administered once every two days for a total of three times by intratumoral injection. The growth of tumors in mice was detected by chemiluminescence using the IVIS Spectrum Imaging System. […] After imaging, fluorescence values were converted to photon numbers and the total number of fluorescence photons for each experimental group was counted. […] In which the numbers in FIG. 4a, FIG. 4b, FIG. 4c, FIG. 4d, FIG. 4e and FIG. 4f represent the total number of fluorescence photons in the circular region (ROI, region of interest), and FIG. 4g and FIG. 4h are statistical graphs of the total number of fluorescence photons for each experimental group, respectively. […]
# [1] = test system: type I interferon expression in THP-1 cells; settings: reference compound 2′3′-RR-(AXA) in patent CN108430503A; read-out: EC50 value of the control drug; cited from earlier work
# [2] = Determination of the oil-water partition coefficient log P (n-octanol/water, HPLC); type: physicochemical; settings: pH 7; n-octanol / purified water (10 mM K2HPO4 pH7.0), HPLC peak area ratio, three repeats
# Description: Determination of the Oil-Water Partition Coefficient Log P of the Two Cyclic Dinucleotide Prodrug Molecules.
# 1) Preparing the compound solution: a certain amount of the compound 8, the compound 16 and the compound cddA35 were weighed and dissolved in DMSO solutions respectively to prepare mother solutions with a concentration of 1 mg/mL. 2) 20 μL of the prepared mother liquor was added to an EP tube containing a mixture of 1 mL of n-octanol and 1 mL of purified water (10 mM K2HPO4 pH7.0), vortexed for 2 h with shaking, and allowed to stand overnight at 4° C. for phase separation, and 400 μL of solution from each phase was separated. Centrifuging at 3000 rpm for 5 min, filtering with corresponding […] filter membrane, measuring the two-phase absorption peak area under the same HPLC parameter condition, repeating the experiment for three times, and calculating log value of the peak area ratio of n-octyl alcohol phase and water phase to obtain the log P value of the target compound, as shown in Table 2.
# HPLC conditions: the instrument used by an Agilent 1260 HPLC, column: Agilent ZORABX SB-C185 μm [4.6×150 mm], column temperature 25° C., sample injection 10 μL, detection wavelength was […], chromatographic gradient method as shown in Table 1 below.
# [3] = test system: type I interferon expression in THP-1 cells; test: Type I interferon activity assay in monocytic cell line THP-1 (THP-1-Lucia) cells; type: cell-based; settings: for EC50: Homo sapiens, THP-1, dose-response curves, serial dilutions, FIG. 3, read-out: EC50 causing type I interferon expression in THP-1 cell line
# Description: Activity Assay of Two Cyclic Dinucleotide Prodrug Molecules in Monocytic Cell Line THP-1 Cells
# The THP-1-Lucia cells confluency reached about 80%, and the compound 8, the compound 16 and the drug ADU-S100 are directly dissolved into a culture medium according to a certain concentration and added into a 24-well plate, wherein four wells are parallel. The cells were maintained under the culture condition of 37° C. and 5% CO2 for 24 h. After the end of the culture, luciferase activity was measured. Wherein, the test results of the type I interferon of the compound 8, the compound 16 and the drug ADU-S100 in the monocyte cell line THP-1 under the action concentration of 10 μM are shown in FIG. 2; EC50 values for the compound 8 and the compound 16 to cause type I interferon expression in THP-1 cell lines were then determined by dose-response curves for serial dilutions at various concentrations, as shown in FIG. 3.
# STING = test: Dual-fluorescence reporter gene activity assay in HEK293T cells (hSTING-wt, IFNβ promoter luciferase); type: cell-based, human; settings: 5 μM, without any transfection reagent, 24 h, FIG. 1
# Description: Activity assay of two cyclic dinucleotide prodrug molecules in HEK293T cells
# The principle is as follows: dual-fluorescence reporter gene experiments: After entering a cell, the cyclic dinucleotide prodrug molecule passes through thioesterase in the cytoplasm of the cell or a reducing environment, so that thioester bond breakage or disulfide bond breakage is carried out, then an intermediate is obtained, a sulfur atom at a p position can nucleophilically attack a carbon atom at the a position, cyclic thioethane is removed, cyclic dinucleotides with a phosphodiester structure of a parent drug with negative charges are released, the intracellular STING protein is combined and activated, interferon regulatory factor 3 (IRF3) is phosphorylated, phosphorylated IRF3 enters into the nucleus and combined with the promoter region of a interferon-β gene to cause the expression of interferon, and based on these, the interferon gene promoter is introduced into a promoter of firefly luciferase, so that the cell activity of the prodrug molecule can be measured by using a dual-fluorescence reporter gene method.
# (1) preparing the compound solution: the compound 8 and the compound 16 were dissolved in DMSO, respectively, to obtain a final concentration of 1 mM. cddA35 was dissolved in water and similarly prepared at a concentration of 1 mM. […]
SMILES,growth of the tumor in the mice (CT-26-Luc cells),EC50 [1] [nM],logP [2],EC50 [3] [nM],dual-fluorescence result: crossing cell membranes and activating STING pathway / expression of interferon (STING),"expression of type I interferon in THP-1 cell line ([3]; action concentration of 10 μM, without any transfection reagent, 24 h, FIG. 2, activity much higher than ADU-S100)"
Nc1ncnc2c1ncn2[C@@H]1O[C@@H]2COP(=O)([S-])O[C@@H]3[C@H](O)[C@@H](COP([O-])(=S)O[C@H]2[C@H]1O)O[C@H]3n1cnc2c(N)ncnc21.[Na+].[Na+] (stereo partly shown) [ADU-S100],only controlled,41500,–,–,–,–
CC(C)(C)C(=O)SCCOP1(=O)OC[C@H]2O[C@@H](n3cnc4c(N)ncnc43)C[C@H]2OP(=O)(OCCSC(=O)C(C)(C)C)OC[C@H]2O[C@@H](n3cnc4c(N)ncnc43)CC2O1 (stereo partly shown) [Compound 8],–,–,1.93,4.4,–,–
Nc1ncnc2c1ncn2[C@H]1CC2OP(=O)(OCCSSc3ccccn3)OC[C@H]3O[C@@H](n4cnc5c(N)ncnc54)CC3OP(=O)(OCCSSc3ccccn3)OC[C@H]2O1 (stereo partly shown) [Compound 16],–,–,0.85,355,can autonomously cross cell membranes without any transfection reagent,strong expression of type I interferon
"Nc1ncnc2c1ncn2[C@H]1CC2OP(=O)(O)OC[C@H]3O[C@@H](n4cnc5c(N)ncnc54)CC3OP(=O)(O)OC[C@H]2O1 (stereo partly shown) [cddA35, reference compound]",–,–,-3.43,–,hardly crosses cell membranes,–
